Consider 28 compounds from patent US20100317647A1 (priority 2009, published 2010).

As a reminder, the IC50 is the concentration that inhibits the measured activity by half. Low readings indicate inhibition by little substance, high ones a need for much substance.

Sequence of human Cat S (P25774 115-331): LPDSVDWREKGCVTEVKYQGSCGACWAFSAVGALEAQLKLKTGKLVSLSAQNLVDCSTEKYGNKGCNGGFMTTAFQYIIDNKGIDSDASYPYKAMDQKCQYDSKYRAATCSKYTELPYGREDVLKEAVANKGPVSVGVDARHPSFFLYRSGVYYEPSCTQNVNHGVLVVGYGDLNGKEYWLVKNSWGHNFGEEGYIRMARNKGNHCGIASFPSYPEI

The target of the assay is human Cat S (Homo sapiens, UniProt P25774). Nature of the assay: Cathepsin enzyme inhibition assay (fluorogenic peptide substrate cleavage). Type of assay: biochemical. The note with it: human Cat S 1 nM; substrate Z-Val-Val-Arg-AMC 20 μM; pH 6.5; fluorescence over 20 minutes. The essentials:
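IC50 values derived from fluorescence increase (ex 360 nm, em 465 nm) monitored for 20 minutes after substrate addition. Enzyme held at 1 nM with 20 μM Z-Val-Val-Arg-AMC, in pH 6.5 potassium phosphate buffer containing DTT, EDTA and Triton X-100.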
`N#CC1(NC(=O)[C@@H]2C[C@@H](S(=O)(=O)c3ccccc3)C[C@H]2C(=O)N2[C@@H]3CC[C@H]2COC3)CC1` [Example 18, (1R,2R,4R)-4-Benzenesulfonyl-2-((1R,5S)-3-oxa-8-aza-bicyclo[3.2.1]octane-8-carbonyl)-cyclopentanecarboxylic acid (1-cyano-cyclopropyl)-amide] yielded an IC50 of 2 nM. In other words, the single-digit nanomolar range.
To `CC1CCN(C(=O)[C@@H]2C[C@H](S(=O)(=O)c3ccccc3)C[C@H]2C(=O)NC2(C#N)CC2)CC1` [Example 19, (1R,2R,4R)-4-Benzenesulfonyl-2-(4-methyl-piperidine-1-carbonyl)-cyclopentanecarboxylic acid (1-cyano-cyclopropyl)-amide] belongs 0.5 nM; to `N#CC1(NC(=O)[C@@H]2C[C@@H](S(=O)(=O)c3ccccc3)C[C@H]2C(=O)N2CCS(=O)(=O)CC2)CC1` [Example 20, (1R,2R,4R)-4-Benzenesulfonyl-2-(1,1-dioxo-1-thiomorpholine-4-carbonyl)-cyclopentanecarboxylic acid (1-cyano-cyclopropyl)-amide], 4.3 nM; to `CCOC1CN(C(=O)[C@@H]2C[C@H](S(=O)(=O)c3ccccc3)C[C@H]2C(=O)NC2(C#N)CC2)C1` [Example 21, (1R,2R,4R)-4-Benzenesulfonyl-2-(3-ethoxy-azetidine-1-carbonyl)-cyclopentanecarboxylic acid (1-cyano-cyclopropyl)-amide], 4.9 nM.
To `COC1CN(C(=O)[C@@H]2C[C@H](S(=O)(=O)c3ccccc3)C[C@H]2C(=O)NC2(C#N)CC2)C1` [Example 22, (1R,2R,4R)-4-Benzenesulfonyl-2-(3-methoxy-azetidine-1-carbonyl)-cyclopentanecarboxylic acid (1-cyano-cyclopropyl)-amide] belongs 5.5 nM; to `N#CC1(NC(=O)[C@@H]2C[C@@H](S(=O)(=O)c3ccccc3)C[C@H]2C(=O)N2CCCC2)CC1` [Example 23, (1R,2R,4R)-4-Benzenesulfonyl-2-(pyrrolidine-1-carbonyl)-cyclopentanecarboxylic acid (1-cyano-cyclopropyl)-amide], 1.5 nM.
The compound `N#CC1(NC(=O)[C@@H]2C[C@@H](S(=O)(=O)c3ccccc3)C[C@H]2C(=O)N2CCC2)CC1` [Example 24, (1R,2R,4R)-2-(Azetidine-1-carbonyl)-4-benzenesulfonyl-cyclopentanecarboxylic acid (1-cyan o-cyclopropyl)-amide] gave an IC50 of 9.6 nM. Against the preceding compound, the IC50 is about 6.4-fold higher.
Take `CCN(CC)C(=O)[C@@H]1C[C@H](S(=O)(=O)c2ccccc2)C[C@H]1C(=O)NC1(C#N)CC1` [Example 25, (1R,2R,4R)-4-Benzenesulfonyl-cyclopentane-1,2-dicarboxylic acid 1-[(1-cyano-cyclopropyl)-amide]2-diethylamide]: the midpoint of inhibition, the IC50, lay at 2.6 nM.
For the compound `CN1CCN(C(=O)[C@@H]2C[C@H](S(=O)(=O)c3ccccc3)C[C@H]2C(=O)NC2(C#N)CC2)CC1` [Example 26, (1R,2R,4R)-4-Benzenesulfonyl-2-(4-methyl-piperazine-1-carbonyl)-cyclopentanecarboxylic acid (1-cyano-cyclopropyl)-amide], the IC50 is 1.5 nM.
In turn, `CN(C)C(=O)[C@@H]1C[C@H](S(=O)(=O)c2ccccc2)C[C@H]1C(=O)NC1(C#N)CC1` [Example 27, (1R,2R,4R)-4-Benzenesulfonyl-cyclopentane-1,2-dicarboxylic acid 1-[(1-cyano-cyclopropyl)-amide]2-dimethylamide] registered an IC50 of 6.2 nM.
On to `CC(C)(C)NC(=O)[C@@H]1C[C@H](S(=O)(=O)c2ccccc2)C[C@H]1C(=O)NC1(C#N)CC1` [Example 28, (1R,2R,4S)-4-Benzenesulfonyl-cyclopentane-1,2-dicarboxylic acid 1-tert-butylamide 2-[(1-cyano-cyclopropyl)-amide]], for which the IC50 came to 25.5 nM.
With `CNC(=O)[C@@H]1C[C@H](S(=O)(=O)c2ccccc2)C[C@H]1C(=O)NC1(C#N)CC1` [Example 29, (1R,2R,4S)-4-Benzenesulfonyl-cyclopentane-1,2-dicarboxylic acid 1-[(1-cyano-cyclopropyl)-amide]2-methylamide] the figure was 72.5 nM; with `Cc1cc(Cl)ccc1S(=O)(=O)[C@@H]1C[C@@H](C(=O)NC(C#N)c2ccccc2)[C@H](C(=O)N2CCOCC2)C1` (stereo partly drawn) [Example 31, (1R,2R,4R)-4-(4-Chloro-2-methyl-benzenesulfonyl)-2-(morpholine-4-carbonyl)-cyclopentanecarboxylic acid (cyano-phenyl-methyl)-amide], 0.2 nM.
`Cc1cc(Cl)ccc1S(=O)(=O)[C@@H]1C[C@@H](C(=O)NCC#N)[C@H](C(=O)N2C[C@@H](C)O[C@@H](C)C2)C1` [Example 32, (1R,2R,4R)-4-(4-Chloro-2-methyl-benzenesulfonyl)-2-((2S,6R)-2,6-dimethyl-morpholine-4-carbonyl)-cyclopentanecarboxylic acid cyanomethyl-amide] displayed an IC50 of 0.4 nM. This IC50 lies about 2-fold higher than the previous one.
Consider `Cc1cc(Cl)ccc1S(=O)(=O)[C@@H]1C[C@@H](C(=O)NCC#N)[C@H](C(=O)N2CCN(C)CC2)C1` [Example 33, (1R,2R,4R)-4-(4-Chloro-2-methyl-benzenesulfonyl)-2-(4-methyl-piperazine-1-carbonyl)-cyclopentanecarboxylic acid cyanomethyl-amide], for which the IC50 was 1.6 nM.
The compound `CC(C)(C#N)NC(=O)[C@@H]1C[C@@H](S(=O)(=O)c2ccccc2)C[C@H]1C(=O)N1CCOCC1` [Example 34, (1R,2R,4R)-4-Benzenesulfonyl-2-(morpholine-4-carbonyl)-cyclopentanecarboxylic acid (cyano-dimethyl-methyl)-amide] had an IC50 of 2.5 nM.
To `N#CC1(NC(=O)[C@@H]2C[C@@H](S(=O)(=O)c3ccccc3)C[C@H]2C(=O)N2CCOCC2)CCC1` [Example 35, (1R,2R,4R)-4-Benzenesulfonyl-2-(morpholine-4-carbonyl)-cyclopentanecarboxylic acid (1-cyano-cyclobutyl)-amide] belongs 4 nM.
To `N#CCNC(=O)[C@@H]1C[C@@H](S(=O)(=O)c2cccc3ccccc23)C[C@H]1C(=O)N1CCOCC1` [Example 36, (1R,2R,4R)-2-(Morpholine-4-carbonyl)-4-(naphthalene-1-sulfonyl)-cyclopentanecarboxylic acid cyanomethyl-amide] belongs 0.4 nM; to `N#CCNC(=O)[C@@H]1C[C@@H](S(=O)(=O)c2ccccc2C(F)(F)F)C[C@H]1C(=O)N1CCOCC1` [Example 37, (1R,2R,4R)-2-(Morpholine-4-carbonyl)-4-(2-trifluoromethyl-benzenesulfonyl)-cyclopentanecarboxylic acid cyanomethyl-amide], 0.9 nM; to `N#CCNC(=O)[C@@H]1C[C@@H](S(=O)(=O)Cc2ccccc2)C[C@H]1C(=O)N1CCOCC1` [Example 38, (1R,2R,4R)-2-(Morpholine-4-carbonyl)-4-phenylmethanesulfonyl-cyclopentanecarboxylic acid cyanomethyl-amide], 533 nM.
With `CC(C)CS(=O)(=O)[C@@H]1C[C@@H](C(=O)NCC#N)[C@H](C(=O)N2CCOCC2)C1` [Example 39, (1R,2R,4R)-4-(2-Methyl-propane-1-sulfonyl)-2-(morpholine-4-carbonyl)-cyclopentanecarboxylic acid cyanomethyl-amide] the figure was 445 nM.
As for `N#CCNC(=O)[C@@H]1C[C@@H](S(=O)(=O)CC2CC2)C[C@H]1C(=O)N1CCOCC1` [Example 40, (1R,2R,4R)-4-Cyclopropylmethanesulfonyl-2-(morpholine-4-carbonyl)-cyclopentanecarboxylic acid cyanomethyl-amide], 230 nM corresponded to half-maximal inhibition (IC50).
To `N#CC1(NC(=O)[C@@H]2C[C@@H](S(=O)(=O)c3ccccc3)C[C@H]2C(=O)Nc2ccc(F)cc2)CC1` [Example 42, (1R,2R,4S)-4-Benzenesulfonyl-cyclopentane-1,2-dicarboxylic acid 1-[(1-cyano-cyclopropyl)-amide]2-[(4-fluoro-phenyl)-amide]] belongs 25.5 nM.
The compound `Cc1cc(Cl)ccc1S(=O)(=O)[C@H]1C[C@@H](C(=O)N2CCOCC2)[C@H](C(=O)N2CCC[C@H]2C#N)C1` [Example 44, (S)-1-[(1R,2R,4S)-4-(4-Chloro-2-methyl-benzenesulfonyl)-2-(morpholine-4-carbonyl)-cyclopentanecarbonyl]-pyrrolidine-2-carbonitrile] displayed an IC50 of 1300 nM.
The compound `Cc1cc(Cl)ccc1S(=O)(=O)[C@@H]1C[C@@H](C(=O)NC2(C#N)CCN(C)CC2)[C@H](C(=O)N2CCOCC2)C1` [Example 45, (1R,2R,4R)-4-(4-Chloro-2-methyl-benzenesulfonyl)-2-(morpholine-4-carbonyl)-cyclopentanecarboxylic acid (4-cyano-1-methyl-piperidin-4-yl)-amide formiate] returned an IC50 of 0.1 nM.
With `N#CC1(NC(=O)[C@@H]2C[C@@H](S(=O)(=O)c3ccc(Br)cc3C(F)(F)F)C[C@H]2C(=O)N2CC(F)(F)C2)CC1` [Example 117, (1R,2R,4R)-4-(4-Bromo-2-trifluoromethyl-benzenesulfonyl)-2-(3,3-difluoro-azetidine-1-carbonyl)-cyclopentanecarboxylic acid (1-cyano-cyclopropyl)-amide] the figure was 1.1 nM; with `N#CC1(NC(=O)[C@@H]2C[C@@H](S(=O)(=O)c3ccc(F)cc3C(F)(F)F)C[C@H]2C(=O)N2CC(F)(F)C2)CC1` [Example 118, (1R,2R,4R)-2-(3,3-Difluoro-azetidine-1-carbonyl)-4-(4-fluoro-2-trifluoromethyl-benzenesulfonyl)-cyclopentanecarboxylic acid (1-cyano-cyclopropyl)-amide], 3 nM; with `N#CC1(NC(=O)[C@@H]2C[C@@H](S(=O)(=O)c3ccc(F)cc3Cl)C[C@H]2C(=O)N2CC(F)(F)C2)CC1` [Example 119, (1R,2R,4R)-4-(2-Chloro-4-fluoro-benzenesulfonyl)-2-(3,3-difluoro-azetidine-1-carbonyl)-cyclopentanecarboxylic acid (1-cyano-cyclopropyl)-amide], 6.1 nM.
